{
  "source": "ChEMBL document CHEMBL3596144",
  "about": "“New Indole Tubulin Assembly Inhibitors Cause Stable Arrest of Mitotic Progression, Enhanced Stimulation of Natural Killer Cell Cytotoxic Activity, and Repression of Hedgehog-Dependent Cancer” (J Med Chem, 2015)",
  "key": {"[1]": {"experiment": "Intrinsic clearance in human liver microsomes assessed per mg of protein preincubated for 10 mins followed by NADP/Glc6P/G6P-DH addition by LC-MS/MS analysis", "type": "ADME", "conditions": "read-out: CLH"}, "[2]": {"experiment": "Intrinsic clearance in mouse liver microsomes assessed per mg of protein preincubated for 10 mins followed by NADP/Glc6P/G6P-DH addition by LC-MS/MS analysis", "type": "ADME", "conditions": "read-out: CLH"}, "[3]": {"experiment": "cells", "conditions": "Homo sapiens, NCI/ADR-RES, 48 h", "description": "Cytotoxicity against Pgp overexpressing human NCI-ADR-RES cells assessed as growth inhibition after 48 hrs by SRB assay"}, "[4]": {"test_system": "RD", "experiment": "Cytotoxicity against human RD cells assessed as growth inhibition after 48 hrs by MTT assay", "type": "functional, cell-based"}, "[5]": {"test_system": "NCI-H1975", "experiment": "Cytotoxicity against human NCI-H1975 cells assessed as growth inhibition after 72 hrs by CellTiter-Fluor assay", "type": "functional, cell-based", "conditions": "NCI-H1975, 72 h"}, "[6]": {"test_system": "HepG2", "experiment": "Cell cycle arrest in human HepG2 cells assessed as accumulation at G2/M phase at 500 to 2000 nM after 24 hrs by propidium iodide staining-based flow cytometric analysis", "type": "functional"}, "[7]": {"test_system": "HepG2", "experiment": "Induction of apoptosis in human HepG2 cells after 48 hrs by propidium iodide/annexin V-FITC staining-based cytofluorometric analysis", "type": "functional, cell-based"}, "[8]": {"test_system": "OVCAR-8", "experiment": "cells", "conditions": "Homo sapiens, OVCAR-8, 48 h", "description": "Cytotoxicity against human OVCAR8 cells assessed as growth inhibition after 48 hrs by SRB assay"}, "[9]": {"test_system": "RD", "experiment": "Cell cycle arrest in human RD cells assessed as accumulation at G2/M phase at 500 to 2000 nM after 24 hrs by propidium iodide staining-based flow cytometric analysis", "type": "functional"}, "[10]": {"test_system": "PC-3", "experiment": "Cell cycle arrest in human PC3 cells assessed as accumulation at G2/M phase at 500 to 2000 nM after 24 hrs by propidium iodide staining-based flow cytometric analysis", "type": "functional"}, "[11]": {"test_system": "RD", "experiment": "Induction of apoptosis in human RD cells at 500 nM after 48 hrs by propidium iodide/annexin V-FITC staining-based cytofluorometric analysis", "type": "functional, cell-based"}, "[12]": {"test_system": "PC-3", "experiment": "Induction of apoptosis in human PC3 cells after 48 hrs by propidium iodide/annexin V-FITC staining-based cytofluorometric analysis", "type": "functional, cell-based"}, "[13]": {"target": "Protein smoothened (Mus musculus) (UniProt P56726)", "sequence (P56726 whole entry)": "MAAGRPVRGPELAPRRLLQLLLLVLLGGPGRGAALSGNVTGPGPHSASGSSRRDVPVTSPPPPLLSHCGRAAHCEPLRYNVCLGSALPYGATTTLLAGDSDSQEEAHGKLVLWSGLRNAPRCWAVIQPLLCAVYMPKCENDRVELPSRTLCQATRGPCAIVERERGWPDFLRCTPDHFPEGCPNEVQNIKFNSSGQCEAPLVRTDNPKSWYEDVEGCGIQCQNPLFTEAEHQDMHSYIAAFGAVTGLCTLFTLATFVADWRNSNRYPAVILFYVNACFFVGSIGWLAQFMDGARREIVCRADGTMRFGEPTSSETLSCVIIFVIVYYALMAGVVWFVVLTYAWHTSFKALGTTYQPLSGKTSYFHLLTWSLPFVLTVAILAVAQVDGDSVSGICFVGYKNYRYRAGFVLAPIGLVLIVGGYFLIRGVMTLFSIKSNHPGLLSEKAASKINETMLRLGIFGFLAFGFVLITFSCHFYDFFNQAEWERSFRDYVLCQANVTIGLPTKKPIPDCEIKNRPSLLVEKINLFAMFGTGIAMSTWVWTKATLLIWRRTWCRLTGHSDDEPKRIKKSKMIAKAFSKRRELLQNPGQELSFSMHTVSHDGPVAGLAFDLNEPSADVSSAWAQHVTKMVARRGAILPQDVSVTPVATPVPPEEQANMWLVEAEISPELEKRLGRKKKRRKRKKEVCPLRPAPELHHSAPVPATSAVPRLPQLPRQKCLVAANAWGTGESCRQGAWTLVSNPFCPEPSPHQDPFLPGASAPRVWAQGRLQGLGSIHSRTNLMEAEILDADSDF", "experiment": "Antagonist activity at smo receptor in mouse NIH3T3 Shh-Light II cells assessed as inhibition of SAG-induced hedgehog pathway after 48 hrs by dual luciferase reporter gene assay", "type": "cell-based"}, "[14]": {"test_system": "HeLa", "experiment": "Upregulation of DNAM1 ligand expression in human HeLa cells after 48 hrs by immunofluorescence staining-based flow cytometric analysis", "type": "functional, cell-based"}, "[15]": {"test_system": "HeLa", "experiment": "Upregulation of NKG2D ligand expression in human HeLa cells after 48 hrs by immunofluorescence staining-based flow cytometric analysis", "type": "functional, cell-based"}, "[16]": {"test_system": "HeLa", "experiment": "Cell cycle arrest in human HeLa cells assessed as accumulation at sub-G1 phase at 20 nM after 24 hrs by propidium iodide staining-based flow cytometric analysis", "type": "functional"}, "[17]": {"test_system": "HeLa", "experiment": "Induction of apoptosis in human HeLa cells at 20 nM after 24 hrs by propidium iodide/annexin V-FITC staining-based cytofluorometric analysis", "type": "functional, cell-based"}, "[18]": {"test_system": "HeLa", "experiment": "Inhibition of microtubule polymerization in human HeLa cells assessed as appearance of tubulin foci and/or small asters of short microtubule fragments at 20 nM after 24 hrs by immunofluorescence staining-based microscopic analysis", "type": "cell-based"}, "[19]": {"experiment": "Cytotoxicity against human MESSA/DX5 cells assessed as growth inhibition after 72 hrs by CellTiter-Glo assay", "type": "functional, cell-based", "conditions": "MES-SA/Dx5, 72 h"}, "[20]": {"test_system": "HeLa", "experiment": "Cell cycle arrest in human HeLa cells assessed as accumulation at G2/M phase at 20 nM after 24 hrs by propidium iodide staining-based flow cytometric analysis", "type": "functional"}, "[21]": {"test_system": "PC-3", "experiment": "cells", "conditions": "Homo sapiens, PC-3, 48 h", "description": "Cytotoxicity against human PC3 cells assessed as growth inhibition after 48 hrs by MTT assay"}, "[22]": {"experiment": "Cytotoxicity against human MESSA cells assessed as growth inhibition after 72 hrs by CellTiter-Glo assay", "type": "functional, cell-based", "conditions": "MES-SA"}},
  "note": "Active and inactive are the calls of the source. The rule behind the calls is not given here.",
  "data": [
    {"smiles": "CCOc1ccc2ccc(=O)oc2c1", "note": "[ETHOXYCOUMARIN]", "values": [
      {"measurement": "microsomal CLint", "setting": "[1]", "value": 209, "unit": "µL/min/mg"},
      {"measurement": "microsomal CLint", "setting": "[2]", "value": 711, "unit": "µL/min/mg"}
    ]},
    {"smiles": "CCC1=C[C@@H]2CN(C1)Cc1c([nH]c3ccccc13)[C@@](C(=O)OC)(c1cc3c(cc1OC)N(C)[C@H]1[C@@](O)(C(=O)OC)[C@H](OC(C)=O)[C@]4(CC)C=CCN5CC[C@]31[C@@H]54)C2", "note": "[VINORELBINE]", "values": [
      {"measurement": "IC50", "setting": "[3]", "value": 5, "unit": "µM"}
    ]},
    {"smiles": "CC(=O)O[C@H]1C(=O)[C@@]2(C)[C@H]([C@H](OC(=O)c3ccccc3)[C@]3(O)C[C@H](OC(=O)[C@H](O)[C@@H](NC(=O)c4ccccc4)c4ccccc4)C(C)=C1C3(C)C)[C@]1(OC(C)=O)CO[C@@H]1C[C@@H]2O", "note": "[PACLITAXEL]", "values": [
      {"measurement": "IC50", "setting": "[4]", "value": "> 10", "unit": "µM"},
      {"measurement": "IC50", "setting": "[5]", "value": 0.0025, "unit": "µM"},
      {"measurement": "Activity", "setting": "[6]", "value": "Active"},
      {"measurement": "Activity", "setting": "[7]", "value": "Dose-dependent effect"},
      {"measurement": "IC50", "setting": "[8]", "value": 0.0037, "unit": "µM"},
      {"measurement": "Activity", "setting": "[9]", "value": "Active"},
      {"measurement": "Activity", "setting": "[10]", "value": "Active"},
      {"measurement": "Activity", "setting": "[11]", "value": "Active"},
      {"measurement": "Activity", "setting": "[12]", "value": "Dose-dependent effect"}
    ]},
    {"smiles": "COc1ccc2c(Sc3cc(OC)c(OC)c(OC)c3)c(-c3ccccc3)[nH]c2c1", "values": [
      {"measurement": "inhibition", "setting": "[13]", "value": "Dose-dependent effect"}
    ]},
    {"smiles": "COc1cc(Sc2c(-n3ccnc3)[nH]c3ccccc23)cc(OC)c1OC", "values": [
      {"measurement": "inhibition", "setting": "[13]", "value": "Dose-dependent effect"}
    ]},
    {"smiles": "COc1cc(C(=O)c2ccn(-c3cccc(N)c3)c2)cc(OC)c1OC", "values": [
      {"measurement": "Activity", "setting": "[14]", "value": "inactive"},
      {"measurement": "Activity", "setting": "[15]", "value": "inactive"}
    ]},
    {"smiles": "CC[C@]1(O)C[C@@H]2CN(CCc3c([nH]c4ccccc34)[C@@](C(=O)OC)(c3cc4c(cc3OC)N(C)[C@H]3[C@@](O)(C(=O)OC)[C@H](OC(C)=O)[C@]5(CC)C=CCN6CC[C@]43[C@@H]65)C2)C1", "note": "[VINBLASTINE]", "values": [
      {"measurement": "Activity", "setting": "[16]", "value": "Active"},
      {"measurement": "Activity", "setting": "[17]", "value": "Active"},
      {"measurement": "IC50", "setting": "[3]", "value": 0.2, "unit": "µM"},
      {"measurement": "inhibition", "setting": "[18]", "value": "Active"},
      {"measurement": "IC50", "setting": "[19]", "value": 0.144, "unit": "µM"},
      {"measurement": "Activity", "setting": "[20]", "value": ">80", "unit": "%"},
      {"measurement": "IC50", "setting": "[21]", "value": 0.766, "unit": "µM"},
      {"measurement": "IC50", "setting": "[22]", "value": 0.003, "unit": "µM"}
    ]},
    {"smiles": "COc1cc(Sc2c(-c3ccccc3)[nH]c3c(Cl)c(Cl)ccc23)cc(OC)c1OC", "values": [
      {"measurement": "inhibition", "setting": "[13]", "value": "Dose-dependent effect"}
    ]}
  ]
}
